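Compound exposure: 48 hours, 5 concentrations, 96-well plates. Abbreviation: GI50, concentration required for 50% inhibition of growth. TGI denotes the concentration required for complete inhibition of growth.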
Experiments:
Test in all cases: growth of human tumour cells (NCI), 48 h
A549 NSCLC = tested on: A549 NSCLC
DMS 114 small cell lung = tested on: DMS 114 small cell lung
HCC-2998 colon = tested on: HCC-2998 colon
HCT-15 colon = tested on: HCT-15 colon
LXFL 529 NSCLC = tested on: LXFL 529 NSCLC
M14 melanoma = tested on: M14 melanoma
SK-OV-3 ovarian = tested on: SK-OV-3 ovarian
SNB-75 CNS = tested on: SNB-75 CNS
UACC-257 melanoma = tested on: UACC-257 melanoma
BT-549 breast = tested on: BT-549 breast

Structure (SMILES)	TGI (A549 NSCLC) [µM]	TGI (DMS 114 small cell lung) [µM]	TGI (HCC-2998 colon) [µM]	TGI (HCT-15 colon) [µM]	TGI (LXFL 529 NSCLC) [µM]	TGI (M14 melanoma) [µM]	TGI (SK-OV-3 ovarian) [µM]	TGI (SNB-75 CNS) [µM]	TGI (UACC-257 melanoma) [µM]	GI50 (A549 NSCLC) [µM]	GI50 (HCC-2998 colon) [µM]	GI50 (HCT-15 colon) [µM]	GI50 (LXFL 529 NSCLC) [µM]	GI50 (M14 melanoma) [µM]	GI50 (SK-OV-3 ovarian) [µM]	GI50 (SNB-75 CNS) [µM]	GI50 (UACC-257 melanoma) [µM]	TGI (BT-549 breast) [µM]	GI50 (BT-549 breast) [µM]
CN1CCN(c2nc(N)c(Br)c(Cl)n2)CC1	> 100	> 100	> 100	> 100	> 100	> 100	> 100	> 100	> 100	–	–	–	–	–	–	–	–	–	–
CC(=O)CC(=O)Nc1ccccc1C(F)(F)F	> 100	> 100	> 100	> 100	> 100	> 100	> 100	> 100	–	–	–	–	–	–	–	–	–	–	–
CC(=O)[CH-]C(=O)c1ccccc1.CC(=O)[CH-]C(=O)c1ccccc1.CC(=O)[CH-]C(=O)c1ccccc1.[Ga+3]	> 100	–	29.9	> 100	24.8	30.1	38.2	69.3	31.5	34.4	13.9	18.2	12	15.5	20.1	20.3	16.2	–	–
Cc1ccc(Nc2nc(-c3ccc(-c4ccc([N+](=O)[O-])cc4)o3)cs2)cc1	> 100	–	97	> 100	> 100	> 100	> 100	> 100	90	–	–	–	–	–	–	–	–	–	–
COc1ccc(C(=O)C(C(=O)C(=O)NCCCNC(=O)C(=O)C(C(=O)c2ccc(OC)cc2)c2ccc(OC)cc2)c2ccc(OC)cc2)cc1 (stereo unspecified)	> 100	> 100	> 100	> 100	> 100	> 100	> 100	> 100	> 100	–	–	–	–	–	–	–	–	–	–
Cc1cc(Br)ccc1N=Nc1c(C)nn(-c2ccccc2)c1-c1ccccc1	> 100	> 100	–	> 100	> 100	> 100	> 100	> 100	> 100	–	–	–	–	–	–	–	–	–	–
O=C(NC1=C(Cl)C(=O)c2ccccc2C1=O)C(=O)C(C(=O)c1ccc2ccccc2c1)C1OC(=O)c2ccccc21 (stereo unspecified)	17.5	15.1	22.7	18	17.7	18.2	44	13.6	5.48	–	–	–	–	–	–	–	–	17.3	–
CCN(CC)c1ccc(C2N3CCCCC3[C@@H]3c4[nH]c5ccccc5c4CCN23)cc1 (stereo partly specified)	> 100	33.1	–	> 100	55.6	64.8	> 100	29.1	77.8	–	–	–	–	–	–	–	–	–	–
CN(C)N=Nc1ccc(S(N)(=O)=O)cc1	> 100	> 100	> 100	> 100	–	> 100	> 100	> 100	> 100	–	–	–	–	–	–	–	–	–	–
CC12CCc3ccccc3C1=NNC(=O)C2 (stereo unspecified)	> 100	> 100	> 100	> 100	> 100	> 100	> 100	> 100	> 100	–	–	–	–	–	–	–	–	–	–
CC1=C2C=CC(=O)C[C@@]2(C)CCC1	> 100	> 100	> 100	> 100	> 100	> 100	> 100	> 100	> 100	–	–	–	–	–	–	–	–	–	–
COc1cc(O)c(C(=O)/C=C/c2ccc(OC)c(OCc3ccccc3)c2)c(OC)c1	> 100	–	> 100	> 100	> 100	> 100	> 100	> 100	> 100	–	–	–	–	–	–	–	–	–	–
NC(=O)c1ncn(C2OC(CO)C(O)C2O)c1O (stereo unspecified)	> 100	> 100	> 100	> 100	> 100	> 100	–	> 100	–	–	–	–	–	–	–	–	–	–	–
CC(=O)OCC1OC(n2c(=S)n(-c3ccccc3)c(=O)c3cc(Br)ccc32)C(OC(C)=O)C1OC(C)=O (stereo unspecified)	> 100	> 100	> 100	> 100	> 100	> 100	> 100	> 100	> 100	–	–	–	–	–	–	–	–	–	–
O=C1[C@@H]2C(c3ccccc3[N+](=O)[O-])=NO[C@@H]2C(=O)N1c1ccc(Cc2ccc(N3C(=O)[C@H]4C(c5ccccc5[N+](=O)[O-])=NO[C@H]4C3=O)cc2)cc1	–	> 100	> 100	> 100	> 100	> 100	–	> 100	> 100	–	–	–	–	–	–	–	–	–	–
O=C(N/C(=C\c1ccc(/C=C(\NC(=O)c2ccccc2)c2nc3c(O)nc(S)nc3[nH]2)cc1)c1nc2c(O)nc(S)nc2[nH]1)c1ccccc1	> 100	> 100	> 100	> 100	> 100	> 100	> 100	84.7	> 100	–	–	–	–	–	–	–	–	–	–
N#Cc1ccc(C2SCc3nc4ccccc4n32)cc1 (stereo unspecified)	> 100	–	> 100	> 100	> 100	> 100	> 100	> 100	> 100	–	–	–	–	–	–	–	–	–	–

Structure (SMILES)	TGI (A549 NSCLC) [µM]	TGI (DMS 114 small cell lung) [µM]	TGI (HCC-2998 colon) [µM]	TGI (HCT-15 colon) [µM]	TGI (LXFL 529 NSCLC) [µM]	TGI (M14 melanoma) [µM]	TGI (SK-OV-3 ovarian) [µM]	TGI (SNB-75 CNS) [µM]	TGI (UACC-257 melanoma) [µM]	GI50 (A549 NSCLC) [µM]	GI50 (HCC-2998 colon) [µM]	GI50 (HCT-15 colon) [µM]	GI50 (LXFL 529 NSCLC) [µM]	GI50 (M14 melanoma) [µM]	GI50 (SK-OV-3 ovarian) [µM]	GI50 (SNB-75 CNS) [µM]	GI50 (UACC-257 melanoma) [µM]	TGI (BT-549 breast) [µM]	GI50 (BT-549 breast) [µM]
CCN(CC)C(=S)SS(C)(=O)=O	–	–	–	26.2	30	32.1	> 100	> 100	52.3	–	–	–	–	–	–	–	–	–	–
Cc1[nH]c2cc([N+](=O)[O-])ccc2c1[N+](=O)[O-]	69.6	33.6	52.7	–	48.3	44	–	57.5	43.9	–	–	–	–	–	–	–	–	–	–
CCOC(=O)C1C(=O)CC(=O)C2CCCCC21 (stereo unspecified)	> 100	> 100	–	> 100	> 100	> 100	> 100	> 100	> 100	–	–	–	–	–	–	–	–	–	–
COC(=O)[C@@]12C3=NO[C@]1(C(=O)OC)C(O[Si](C)(C)C(C)(C)C)[C@@H](OC(C)=O)[C@@H](OC(C)=O)[C@@H]2[C@@H](OCc1ccccc1)CC3 (stereo partly specified)	> 100	> 100	> 100	> 100	> 100	> 100	> 100	> 73.7	> 100	–	–	–	–	–	–	–	–	–	–
COc1ccc2c(c1)[n+]([O-])c(-c1ccccc1Cl)c(N)[n+]2[O-]	> 100	> 100	–	> 100	> 100	> 100	> 100	> 100	> 100	–	–	–	–	–	–	–	–	–	–
CCc1c(C)c2cc(-n3c(-c4ccc(OC)cc4)csc3=N)c(O)c(C)c2oc1=O	12.3	–	10.2	3.95	–	6.59	34.4	> 100	14.2	2.7	3.09	1.21	–	1.41	2.85	1.67	3.15	5.02	1
CC(=O)Nc1ccc(/C=c2\sc3nnc(-c4cccnc4)n3c2=O)cc1	> 100	32.4	35.8	35.9	30.8	39.2	66	57.7	49	–	–	–	–	–	–	–	–	–	–
Cc1ccc(S(=O)(=O)NNS(C)(=O)=O)cc1	> 100	> 100	> 100	> 100	> 100	> 100	–	> 100	> 100	–	–	–	–	–	–	–	–	–	–
CC1(C)C(=O)/C=C\C(=O)C(C)(C)C(=O)/C=C\C(=O)C(C)(C)C2=CC=C(O2)C(C)(C)C(=O)/C=C\C1=O	49.7	21	24.1	7.69	6.14	5.63	22.9	20.2	16.6	–	–	–	–	–	–	–	–	24.2	–
Cc1ccc(S(=O)(=O)C2CC2(Cl)Cl)cc1 (stereo unspecified)	> 100	39.8	> 100	55.4	34	29.2	> 100	> 100	44	–	–	–	–	–	–	–	–	–	–
O=C1NC(=NCCc2ccc(Br)cc2)S/C1=C\c1ccc2ncccc2c1	> 25	–	> 25	> 25	–	> 25	> 25	> 25	> 25	> 25	> 25	> 22.3	–	> 25	> 25	> 25	> 25	> 25	> 21.6
O=C(CI)Nc1ccc(Br)cc1	29.3	–	27.3	5.13	–	3.85	3.99	24.7	4.66	5.89	13.4	2.09	–	1.92	1.99	5.42	2.05	3.14	1.64
CCC(=O)Nc1nnc(Cc2ccc(OC)c(OC)c2)s1	> 100	–	> 100	> 100	–	> 100	> 100	> 100	> 100	> 100	> 100	> 100	–	> 100	> 100	44.2	> 100	> 100	> 100
CCCCOC(=O)NC(=O)c1cn(CCCOC(=O)CCCCCCCCC(=O)OCCCn2cc(C(=O)NC(=O)OCCCC)c(=O)n(C)c2=O)c(=O)n(C)c1=O	> 100	> 100	> 100	> 100	> 100	> 100	–	> 100	> 100	–	–	–	–	–	–	–	–	–	–
CCN(CC)c1c(C)nnn1C1OC(COC(C)=O)C(OC(C)=O)C(OC(C)=O)C1OC(C)=O (stereo unspecified)	> 100	> 100	> 100	> 100	> 100	> 100	> 100	> 100	> 100	–	–	–	–	–	–	–	–	–	–
O=C1Cc2cc(CCN3CCNCC3)c(Cl)cc2N1	> 100	–	> 100	> 100	–	26.5	> 100	75.4	> 100	6.85	46.6	6.23	–	3.02	> 100	15.5	6.52	> 100	8.18
